The text below walks through data of patent US12622948B2 (SUN PHARMACEUTICAL INDUSTRIES LIMITED, priority 2020, dated 2026).

Marks after values point to notes of the source that are not given here. Starred links: 1 amine or outer side, 2 acyl side, 3 side chain; linkers in the order of their positions; H or OH if unused. Non-standard residues stand in square brackets, D forms with d. Residues, ends and D or L forms follow the SMILES beside them. Groups on a side chain read outwards from the residue. No end group written: not given here. *: point of attachment. C20 diacid = O=C(O)CCCCCCCCCCCCCCCCCCC(=O)*; γGlu = O=C(O)[C@H](CCC(=O)[*:2])N[*:1]; Moiety A = not defined here; Nva = CCC[C@H](N)C(=O)O; AEEA = NCCOCCOCC(=O)O; Aib = CC(C)(N)C(=O)O

In assay [1] the test system is type 2 diabetic mouse (db/db) model. The assay can be described thus: Efficacy study in db/db mice at 10 nM/kg dose (blood glucose, body weight, food intake). The class given is in vivo. To be noted: for blood glucose reduction / body weight reduction / reduction in food consumption: db/db mice, vs diabetic control. The method, then:
The effect of compounds of present invention on blood glucose, food intake and body weight was studied in mice. This study was performed in a type 2 diabetic mouse (db/db) model. […] Baseline blood glucose was measured from all the animals. […] All the animals were administered with test items subcutaneously. […] Delta blood glucose (mM) was calculated.

For assay [2] the test system is unchanged. The assay is described as follows: Efficacy study in db/db mice at 3 and 20 nM/kg dose (blood glucose, body weight, food intake). The class given is in vivo. How it is done: The effect of compounds of present invention on blood glucose, food intake and body weight was studied on mice. This study was performed in type 2 diabetic mouse (db/db) model. […] Baseline blood glucose was measured from all the animals. All animals were administered with test items subcutaneously. […] Delta blood glucose (mM) was calculated. Body weight changes and cumulative food consumption was measured at 72 hr post treatment.

Setting [3] is: Study 1, db/db mice, 10 nM/kg s.c.
The mark [4] stands for this setting: Study 3, db/db mice, 10 nM/kg s.c. single dose.
Where [5] appears, read: Study 3, db/db mice, 10 nM/kg s.c. single dose, 48 hr.
The mark [6] stands for this setting: Study 3, db/db mice, 10 nM/kg s.c. single dose, 96 hr.
[7] abbreviates: Study 2, db/db mice, 10 nM/kg s.c. single dose.
The mark [8] stands for this setting: Study 2, db/db mice, 10 nM/kg s.c. single dose, 0 hr (baseline).
[9] abbreviates: Study 2, db/db mice, 10 nM/kg s.c. single dose, 4 hr.
Where [10] appears, read: Study 2, db/db mice, 10 nM/kg s.c. single dose, 8 hr.
[11] abbreviates: Study 2, db/db mice, 10 nM/kg s.c. single dose, 12 hr.
Setting [12] is: Study 2, db/db mice, 10 nM/kg s.c. single dose, 24 hr.
Where [13] appears, read: Study 2, db/db mice, 10 nM/kg s.c. single dose, 48 hr.
[14] abbreviates: Study 2, db/db mice, 10 nM/kg s.c. single dose, 72 hr.
Where [15] appears, read: Study 2, db/db mice, 10 nM/kg s.c. single dose, 96 hr.

Turning to Tirzepatide [reference compound], in assay [1] (setting [3]), the “Cumulative food Intake (g) 0-48 hr. vs. Baseline, Mean” value is 4.9*** g and the “Cumulative food Intake (g) 0-96 hr. vs. Baseline, Mean” value is on record as 13.0*** g. The “Body Wt. Change (%) 48 hr. vs. Baseline, Mean” value in assay [1] (Study 1, db/db mice, 10 nM/kg s.c., 48 hr) is −4.2*** %. The “Body Wt. Change (%) 96 hr. vs. Baseline, Mean” value in assay [1] (Study 1, db/db mice, 10 nM/kg s.c., 96 hr) is reported as −2.8*** %. Moreover, in assay [2] (3 nM/kg s.c.), the “Cumulative Food Intake (g), 0-72 hr, Mean” value was 9.6*** g and the “Body weight change (%) 72 hr vs. Baseline, Mean” value is −3.4*** %. In assay [2] (20 nM/kg s.c.), the “Cumulative Food Intake (g), 0-72 hr, Mean” value is on record as 8.4*** g and the “Body weight change (%) 72 hr vs. Baseline, Mean” value is −4.9*** %.

For “Compound 8: SEQ ID 08 polypeptide, C-terminal Lys40 acylated with Moiety A (Y[Aib]EGTFTSDYSI[Nva]LEKIAAQEFVNWLLAGGPSSGAPPPSK(Moiety A)-NH2; reading uncertain)”, the “Cumulative food Intake (g) 0-48 hr. vs. Baseline, Mean” value in assay [1] (setting [4]) is 4.0*** g. Further, the “Cumulative food Intake (g) 0-96 hr. vs. Baseline, Mean” value in assay [1] (setting [4]) is given as 13.9*** g. Further, the “Delta Blood Glucose (mM) Mean” value in assay [1] (Study 3, db/db mice, 10 nM/kg s.c. single dose, 0 hr (baseline)) is 0 mM; in assay [1] (Study 3, db/db mice, 10 nM/kg s.c. single dose, 4 hr) it was −13.6*** mM; in assay [1] (Study 3, db/db mice, 10 nM/kg s.c. single dose, 8 hr) it was −13.6*** mM; in assay [1] (Study 3, db/db mice, 10 nM/kg s.c. single dose, 12 hr) it was −13.6*** mM; in assay [1] (Study 3, db/db mice, 10 nM/kg s.c. single dose, 24 hr) it was −8.5*** mM; in assay [1] (setting [5]) it was −5.6* mM. Moreover, the “Delta Blood Glucose (mM) Mean” value was -1.8 mM in assay [1] (Study 3, db/db mice, 10 nM/kg s.c. single dose, 72 hr) and -0.6 mM in assay [1] (setting [6]). In addition, the “Body Wt. Change (%) 48 hr. vs. Baseline, Mean” value in assay [1] (setting [5]) is −3.1*** %. The “Body Wt. Change (%) 96 hr. vs. Baseline, Mean” value in assay [1] (setting [6]) is on record as −2.8*** %.

As to “Compound 4: SEQ ID 07 polypeptide, Lys20 acylated with Moiety A (Y[Nva]EGTFTSDYSI[Nva]LDKIAQK(Moiety A)AFVQWLIAGGPSSGAPPPS-NH2; not fully specified; reading uncertain)”, the “Cumulative food Intake (g) 0-48 hr. vs. Baseline, Mean” value in assay [1] (setting [7]) is given as 4.6*** g. Besides, in assay [1] (setting [7]), the “Cumulative food Intake (g) 0-96 hr. vs. Baseline, Mean” value is 14.4*** g. In addition, the “Delta Blood Glucose (mM) Mean” value in assay [1] (setting [8]) was 0 mM; in assay [1] (setting [9]), −10.4*** mM; in assay [1] (setting [10]), −13.3*** mM; in assay [1] (setting [11]) it was −13.8*** mM; in assay [1] (setting [12]) it was −4.9* mM; in assay [1] (setting [13]) it was −3.7* mM. Further, the results for the “Delta Blood Glucose (mM) Mean” value in assay [1] (setting [14]) and in assay [1] (setting [15]) were 0.2 mM and -1.9 mM, respectively. Moreover, the “Body Wt. Change (%) 48 hr. vs. Baseline, Mean” value in assay [1] (setting [13]) is −3.8*** %. Moreover, the “Body Wt. Change (%) 96 hr. vs. Baseline, Mean” value in assay [1] (setting [15]) is −1.9** %. Also, the “blood glucose reduction” value in assay [1] (10 nM/kg s.c.) is “statistically significant blood glucose reduction upto 96 hr post treatment”. In addition, the “body weight reduction” value in assay [1] (10 nM/kg s.c.) is “statistically significant reduction in food intake and body weight”. The “reduction in food consumption” value in assay [1] (10 nM/kg s.c.) is “statistically significant reduction in food intake”.

In the case of `CC[C@H](C)[C@H](NC(=O)[C@H](CCCCN)NC(=O)[C@H](CC(=O)O)NC(=O)[C@H](CC(C)C)NC(=O)[C@H](CC(C)C)NC(=O)[C@@H](NC(=O)[C@H](CO)NC(=O)[C@H](Cc1ccc(O)cc1)NC(=O)[C@H](CC(=O)O)NC(=O)[C@H](CO)NC(=O)[C@@H](NC(=O)[C@H](Cc1ccccc1)NC(=O)[C@@H](NC(=O)CNC(=O)[C@H](CCC(=O)O)NC(=O)C(C)(C)NC(=O)[C@@H](N)Cc1ccc(O)cc1)[C@@H](C)O)[C@@H](C)O)[C@@H](C)CC)C(=O)N[C@@H](C)C(=O)N[C@@H](CCC(N)=O)C(=O)N[C@@H](CCCCNC(=O)COCCOCCNC(=O)C(C)(C)NC(=O)CC[C@H](NC(=O)CCCCCCCCCCCCCCCCCCC(=O)O)C(=O)O)C(=O)N[C@@H](C)C(=O)N[C@@H](Cc1ccccc1)C(=O)N[C@H](C(=O)N[C@@H](CCC(N)=O)C(=O)N[C@@H](Cc1c[nH]c2ccccc12)C(=O)N[C@@H](CC(C)C)C(=O)N[C@H](C(=O)N[C@@H](C)C(=O)NCC(=O)NCC(=O)N1CCC[C@H]1C(=O)N[C@@H](CO)C(=O)N[C@@H](CO)C(=O)NCC(=O)N[C@@H](C)C(=O)N1CCC[C@H]1C(=O)N1CCC[C@H]1C(=O)N1CCC[C@H]1C(=O)N[C@@H](CO)C(N)=O)[C@@H](C)CC)C(C)C` [Compound 3] (H-Y[Aib]EGTFTSDYSILLDKIAQK([AEEA-Aib-γGlu-C20 diacid])AFVQWLIAGGPSSGAPPPS-NH2), in assay [1] (setting [7]), the “Cumulative food Intake (g) 0-48 hr. vs. Baseline, Mean” value was 6.0*** g. Further, in assay [1] (setting [7]), the “Cumulative food Intake (g) 0-96 hr. vs. Baseline, Mean” value was 16.0*** g. For the same compound, the “Delta Blood Glucose (mM) Mean” value was 0 mM in assay [1] (setting [8]); −10.3*** mM in assay [1] (setting [9]); −13.9*** mM in assay [1] (setting [10]); −15.8*** mM in assay [1] (setting [11]); −10.9*** mM in assay [1] (setting [12]); −6.6*** mM in assay [1] (setting [13]). Moreover, the “Delta Blood Glucose (mM) Mean” value in assay [1] (setting [14]) was 0.1 mM; in assay [1] (setting [15]), -0.7 mM. For the same compound, the “Body Wt. Change (%) 48 hr. vs. Baseline, Mean” value in assay [1] (setting [13]) was −5.6*** %. The “Body Wt. Change (%) 96 hr. vs. Baseline, Mean” value in assay [1] (setting [15]) is reported as −4.9*** %. Further, the “blood glucose reduction” value in assay [1] (10 nM/kg s.c.) is reported as “statistically significant blood glucose reduction upto 96 hr post treatment”. For the same compound, in assay [1] (10 nM/kg s.c.), the “body weight reduction” value is “statistically significant reduction in food intake and body weight”. The “reduction in food consumption” value in assay [1] (10 nM/kg s.c.) is given as “statistically significant reduction in food intake”.
